The subject of the test is Staphylococcus aureus. In words: Antibacterial activity against Staphylococcus aureus at 200 ug/disk by standard agar plate assay. In kind it is functional, organism-based.

Active and inactive are the calls of the source. The rule behind the calls is not given here.

For `CC(CCCc1coc(CC(C)C(=O)O)c1)Cc1cc(CCCc2ccoc2)co1` (stereo unspecified), the outcome was Active.

These data come from ChEMBL document CHEMBL1158307, “Hippospongins AF: New Furanoterpenes from a Southern Australian Marine Sponge Hippospongia sp” (J Nat Prod, 1996).
